The NIST ThermoML archive (doi:10.1016/j.jct.2013.03.003)
± gives the expanded uncertainty stated by the source.

Assay: osmotic coefficient (dimensionless); mn = molality of the nth substance listed, in mol/kg
Settings: 298.15 K, Liquid, isopiestic method

[Br-].[K+] [potassium bromide] + O
Settings	osmotic coefficient
m1 = 2.545	0.9434 ± 0.0029
m1 = 2.703	0.9473 ± 0.0027
m1 = 2.947	0.9544 ± 0.0023
m1 = 3.171	0.9579 ± 0.0021
m1 = 3.46	0.965 ± 0.0019
m1 = 3.778	0.9757 ± 0.0015
m1 = 4.026	0.9849 ± 0.0011
m1 = 4.214	0.9911 ± 0.0009
m1 = 4.694	1.0054 ± 0.001
m1 = 5.41	1.032 ± 0.002
